Experimental data published in PMC7764601 (Molecules, 2020).
Like-named read-outs stand apart in the source and are kept apart here. Marks after values point to notes of the source that are not given here.

Experiments:
mice [1] = assay: “Writhing” test in mice (phenylbenzoquinone); type: in vivo; settings: for Mean no. of writhing ± SEM: i.p.
Experimental: (§1) The experiments were carried out on male albino Swiss mice (body weight 18–26 g). All of the animals were housed at constant humidity (60%) and temperature (25 °C) and kept on a 12 h light/dark cycle. Animals were fed a standard pellet diet with free access to tap water. All procedures were conducted according to Animal Care and Use Committee guidelines, and approved by the Ethical Committee of Jagiellonian University, Kraków.
(§2) Control and experimental groups consisted of 6–8 animals each. The investigated compounds were administered intraperitoneally as a suspension in 0.5% methylcellulose in a constant volume of 10 mL/kg.
(§3) The statistical significance was calculated using a Student’s t-test. The ED50 values and their confidence limits were calculated according to the method of Litchfield and Wilcoxon.
(§4) Pain reactivity was measured in two tests: “hot plate” test (according to the method of Eddy and Leimbach) and “writhing” test in mice (according to Hendershot and Forsaith).
Then, after 25 min, the irritant (phenylbenzoquinone, 0.02% solution, ethanol-water, 5:95) was also administered intraperitoneally in a constant volume of 0.25 mL. Five min after the application of the irritant,a 10 min long period of observation started, in which the number of writhing episodes was counted.
The analgesic effect of individual doses was expressed in percent:(1) % Analgesic effect=100−∑ of writing incidents in experimental group/∑ of writhing incidents in control group×100

mice [2] = assay: “Hot plate” test in mice; type: in vivo; settings: for Time of Reaction to Pain Stimulus (s) ± SEM: hot plate, mice
Experimental: as §1, §2, §3, §4
Animals were placed individually on the metal plate, heated to 55 ± 1 °C. The latency time (s) to the pain reaction (licking of the hind paws or jumping) was recorded by a stop-watch. A cutoff time of 45 s was used to prevent tissue damage.

mice [3] = system: mice; design: method as in PMID 11234340, PMID 12484538, PMID 15652370; settings: series 1, cited from earlier work
mice [4] = system: mice; design: method as in PMID 11234340, PMID 12484538, PMID 15652370; settings: cited from earlier work; for % Inh. of locomotor activity: series 1; for ED50, influence on the locomotor activity: imides described previously (series 1)
mice [5] = settings: compounds obtained previously (series 1 and 2); cited from earlier work
[6] = Mus musculus, ip, 0.5 h, read-out: Prolonged Time (%)

SMILES: CC(=O)Oc1ccccc1C(=O)O [ASA, Acetylicacid, reference compound]
- ED50 (mice [1]; Mus musculus, ip, confidence limits in parentheses, read-out: ED50 (mg/kg) ± SEM, writhing test): 39.1 mg/kg
- Mean no. of writhing ± SEM (mice [1]; dose 30 mg/kg): 11.2 ± 2.1
- Mean no. of writhing ± SEM (mice [1]; dose 50 mg/kg): 8.5 ± 1.3
- Mean no. of writhing ± SEM (mice [1]; dose 100 mg/kg): 3.2 ± 1.1
- change in vivo at 100 mg/kg (mice [2]; [6]): 11.7%
- change in vivo at 200 mg/kg (mice [2]; [6]): 35.2%
- change in vivo at 400 mg/kg (mice [2]; [6]): 116%
- ED50 (mice [2]; Mus musculus, read-out: ED50, hot plate test): 267 mg/kg
- Time of Reaction to Pain Stimulus (s) ± SEM (mice [2]; dose 100 mg/kg): 16.2 ± 4.9 s
- Time of Reaction to Pain Stimulus (s) ± SEM (mice [2]; dose 200 mg/kg): 19.6 ± 4.1 s
- Time of Reaction to Pain Stimulus (s) ± SEM (mice [2]; dose 400 mg/kg): 31.3 ± 1.2 s

SMILES: COc1nc(C)cc2c1C(=O)N(CCCN1CCN(c3ccccc3)CC1)C2=O [Compound 1H]
- Thiopental Anesthesia % Prolong. (mice [3]; dose 25 mg/kg): 118%
- Thiopental Anesthesia % Prolong. (mice [3]; dose 50 mg/kg): 194%
- % Inh. of locomotor activity (mice [4]; dose 12.5 mg/kg): 47.67%
- % Inh. of locomotor activity (mice [4]; dose 25 mg/kg): 53.84%
- % Inh. of locomotor activity (mice [4]; dose 50 mg/kg): 66.55%
- ED50, influence on the locomotor activity (mice [4]): 15.17 mg/kg
- ED50, writhing test (mice [5]): 1.03 mg/kg

SMILES: COc1nc(C)cc2c1C(=O)N(CN1CCN(c3ccccc3)CC1)C2=O [Compound 1K]
- Thiopental Anesthesia % Prolong. (mice [3]; dose 2.25 mg/kg): 134.1%
- Thiopental Anesthesia % Prolong. (mice [3]; dose 4.5 mg/kg): 199.1%
- % Inh. of locomotor activity (mice [4]; dose 2.25 mg/kg): 49.23%
- % Inh. of locomotor activity (mice [4]; dose 4.5 mg/kg): 61.77%
- ED50, influence on the locomotor activity (mice [4]): 2.28 mg/kg
- ED50, writhing test (mice [5]): 2.55 mg/kg

SMILES: COc1ccccc1N1CCN(CN2C(=O)c3cc(C)nc(OC)c3C2=O)CC1 [Compound 1L]
- Thiopental Anesthesia % Prolong. (mice [3]; dose 12.5 mg/kg): 111.6%
- Thiopental Anesthesia % Prolong. (mice [3]; dose 25 mg/kg): 133.2%
- Thiopental Anesthesia % Prolong. (mice [3]; dose 50 mg/kg): 184.3%
- % Inh. of locomotor activity (mice [4]; dose 12.5 mg/kg): 37.81%
- % Inh. of locomotor activity (mice [4]; dose 25 mg/kg): 40.84%
- % Inh. of locomotor activity (mice [4]; dose 50 mg/kg): 68.25%
- ED50, influence on the locomotor activity (mice [4]): 25.2 mg/kg
- ED50, writhing test (mice [5]): 6.53 mg/kg

SMILES: COc1nc(C)cc2c1C(=O)N(CCCCN1CCc3ccccc3C1)C2=O [Compound 1N]
- Thiopental Anesthesia % Prolong. (mice [3]; dose 23 mg/kg): 100.0%
- Thiopental Anesthesia % Prolong. (mice [3]; dose 46 mg/kg): 286.5%
- % Inh. of locomotor activity (mice [4]; dose 46 mg/kg): 87.48 * %
- ED50, writhing test (mice [5]): 0.72 mg/kg

SMILES: COc1nc(C)cc2c1C(=O)N(CCCCN1CCN(c3ccccc3)CC1)C2=O [Compound 1P]
- Thiopental Anesthesia % Prolong. (mice [3]; dose 50 mg/kg): 140.25%
- Thiopental Anesthesia % Prolong. (mice [3]; dose 100 mg/kg): 242.13%
- % Inh. of locomotor activity (mice [4]; dose 50 mg/kg): 67.14%
- % Inh. of locomotor activity (mice [4]; dose 100 mg/kg): 86.10%
- ED50, writhing test (mice [5]): 4.5 mg/kg
